Results taken from patent US6780838B2, “Compounds for treating fungal pathologies of the oral cavity” (priority 2001, dated 2004).
Where no end group is shown, it is not given here.

Assays:
C. albicans [1] = experiment: C. albicans colony forming units (viability) after incubation with peptide; format: cell-based; details: for relative potency in reducing C. albicans viability: 10^−4 M melanocortin peptides (FIG. 2 legend: all 10^−6 M); for reducing C. albicans CFU at higher concentrations: up to 10^−4 M, results not shown in the figures
Protocol: C. albicans (clinical isolate) was obtained from the collection of the Department of Microbiology, Ospedale Maggiore di Milano and maintained on Sabouraud's agar slants and periodically transferred to Sabouraud's agar plates and incubated for 48 hours at 28° C. To prepare a stationary growth phase yeast, a colony was taken from the agar plate and transferred into 30 ml Sabouraud-dextrose broth and incubated for 72 hours at 32° C. Cells were centrifuged and suspended in Hank's balanced salt solution (“HBSS”) to the desired concentration. Viability, determined by the exclusion of 0.01% methylene blue, remained >98%.
C. albicans (1×10^6/ml in HBSS) was incubated in the presence of absence or (1-13) (SEQ ID NO: […]) or (11-13) (SEQ ID NO: 1) at concentrations in the range of 10^−15 M to 10^−6 M for 2 hours at 37° C. Cells were then washed in cold distilled water and diluted with HBSS to a concentration of 100 organisms/ml. One-ml aliquots were dispensed on blood agar plates and incubated for 48 hours at 37° C. Organism viability was estimated from the number of colonies formed.
In subsequent experiments using familiar procedures we compared activity of α-MSH (4-10) (SEQ ID NO: 2), (6-13) (SEQ ID NO: 3), (11-13) (SEQ ID NO: 1), ACTH (SEQ ID NO: 5) (1-39), (18-39) (SEQ ID NO: 6) and fluconazole, the latter an established antifungal agent. Melanocortin peptides and fluconazole were tested in concentrations of 10^−6 M to 10^−4 M. There were at least six replicates for each concentration of peptide. […]

C. albicans [2] = experiment: as above; format: cell-based; details: FIG. 1; peptide 10^−12 M to 10^−4 M; 2 hours at 37° C.; p<0.01 vs. control
[3] = system: cAMP content of C. albicans; experiment: cAMP content of permeabilized C. albicans (EIA); format: cell-based; details: FIG. 5; 10^−6 M, 3 minutes; increase of same order of magnitude as equimolar forskolin
Protocol: C. albicans ([…]), permeabilized with toluene/ethanol, were incubated at 37° C. with continuous shaking in the presence of 10^31 6 M α-MSH(1-13) (SEQ ID NO: 4), (11-13) (SEQ ID NO: 1), forskolin, an agent known to increase intracellular cAMP, or in medium alone. The reaction was stopped after 3 minutes by the addition of ice cold ethanol, cAMP was measured in duplicate using a commercial enzyme immunoassay (EIA) kit (Amersham, United Kingdom) after extraction via the liquid-phase method according to manufacturer's instructions. The effect of forskolin (10^−6 M) on C. albicans colony formation was determined using the same procedure as for α-MSH peptides.

C. albicans [4] = experiment: C. albicans killing by human neutrophils; format: cell-based; details: FIG. 4; 10^−12 M to 10^−4 M; 2 hours at 37° C.; p<0.01
Protocol: Venous blood (20 ml) from health volunteers was anticoagulated with heparin. Neutrophils were isolated using dextran sedimentation and Ficoll-Hypaque (Sigma Chemical Co., St. Louis, […]., USA) centrifugation. Erythrocytes were lysed via hypotonic shock. Neutrophils represented at least 97% of the cell suspension. Cell viability, estimated by trypan blue exclusion, was >98%. Neutrophils were suspended to a final concentration in HBSS. C. albicans (1×^6) were opsonized with human AB serum in a shaking water bath for 30 minutes at 37° C. Organisms were then incubated with neutrophils in medium or in medium with α-MSH (1-13) (SEQ ID NO: 4) or α-MSH(11-13) (SEQ ID NO: 1) in concentrations of 10^31 15 M to 10^31 4 M in a shaking water bath for 2 hours at 37° C. After incubation, the culture tubes were placed on ice stop growth and extracellular organisms were washed twice with centrifugation at 1000×g at 4° C. A 2.5% sodium desoxycholoate solution was added to obtain a suspension of […]. Two 1/100 serial dilutions in HBSS were made to obtain a final suspension of 100 cells/ml. Aliquots of 1 ml were dispensed on blood agar plates and incubated for 48 hours at 37° C. Colony forming units (CFUs) were counted at the end of the incubation period. Experiments were run in triplicate and repeated using blood from 5 different donors.

[5] = amino acids added to C-terminal α-MSH (11-13); cited from earlier work
[6] = stereochemistry analogs, Hiltz et al. 1991; cited from earlier work
[7] = versus α-MSH; cited from earlier work

Substance: VPK-Ac-CC-Ac-KPV (Ac-CKPV; also: disulfide-linked dimer through Cys)
- effectiveness against microbes compared with α-MSH (11-13) (C. albicans [1]): at least as effective
- C. albicans colony forming units (CFU) (C. albicans [2]): inhibited C. albicans colony formation

Substance: ACTH (1-39): adrenocortitrophic hormone (1-39) (SYSMEHFRWGKPVGKKRRPVLVYPAGEDDEASEAFPLEF)
- relative potency in reducing C. albicans viability (C. albicans [1]; FIG. 2): did not reduce C. albicans viability
- reducing C. albicans CFU at higher concentrations (C. albicans [1]): ineffective

Substance: KPV (Ac-Lys-Pro-Val-NH2) [α-MSH (11-13)]
- cAMP content in the yeast [3]: enhanced
- relative potency in reducing C. albicans viability (C. albicans [1]; FIG. 2): most effective
- killing of C. albicans by human neutrophils (C. albicans [4]): enhanced the killing
- C. albicans colony forming units (CFU) (C. albicans [2]): greatly reduced

Substance: HFRWGKPV (Ac-HFRWGKPV-NH2) [α-MSH (6-13)]
- relative potency in reducing C. albicans viability (C. albicans [1]; FIG. 2): most effective

Substance: 10-13 sequence: α-MSH 10-13, glycine added to the 11-13 sequence (GKPV; ends and bridges not checked; UniProt P01189 147-150, looked up, fragment)
- antipyretic potency relative to the 11-13 sequence [5]: slightly decreased the potency

Substance: 8-13 sequence: α-MSH 8-13 sequence (RWGKPV; ends and bridges not checked; UniProt P01189 145-150, looked up, fragment)
- antipyretic potency relative to the 11-13 sequence [5]: greater than that of the 11-13 sequence

Substance: SYSMEHFRWGKPV [α-MSH (1-13)]
- cAMP content in the yeast [3]: enhanced
- relative potency in reducing C. albicans viability (C. albicans [1]; FIG. 2): most effective
- killing of C. albicans by human neutrophils (C. albicans [4]): enhanced the killing
- C. albicans colony forming units (CFU) (C. albicans [2]): greatly reduced

Substance: ACTH fragment (18-39): ACTH fragment (18-39) (CLIP) (RPVLVYPAGEDDEASEAFPLEF)
- relative potency in reducing C. albicans viability (C. albicans [1]; FIG. 2): did not reduce C. albicans viability
- reducing C. albicans CFU at higher concentrations (C. albicans [1]): ineffective

Substance: 9-13 sequence: α-MSH 9-13 sequence (WGKPV; ends and bridges not checked; UniProt P01189 146-150, looked up, fragment)
- antipyretic potency relative to the 11-13 sequence [5]: almost devoid of activity

Substance: Ac-[D-K^11]-α-MSH 11-13-NH2
- anti-inflammatory potency/activity relative to the L-form tripeptide α-MSH 11-13 [6]: same general potency

Substance: α-MSH (4-10): core α-MSH sequence (4-10), SEQ ID NO: 2
- inhibition of CFU (C. albicans [1]; FIG. 2, 10^−4 M (FIG. 2 legend: 10^−6 M), p<0.01 vs. control): approximately 50%

Substance: [Nle^4,D-Phe^7]-α-MSH
- potency in reducing fever relative to the parent peptide [7]: approximately 10 times
